The values that follow come from US11718618B2, “Substituted pyrido[2,1-a]isoquinolines as VMAT2 inhibitors” (priority 2021, dated 2023).

The experiment addresses human VMAT2 (Homo sapiens (Human), UniProt Q05940). The experiment can be described thus: VMAT2 radioligand binding, 3H-dihydrotetrabenazine competition on human platelet homogenate. As to conditions: 10 nM 3H-dihydrotetrabenazine, human platelet homogenate, 25° C., 90 minutes; read-out: VMAT2 Ki. As to the method:
Examples of techniques for determining the capability of a compound to inhibit VMAT2 are provided below. The procedure was adapted from that described previously (see, e.g., Near, (1986), Mol. Pharmacol. 30: 252-57; Teng, et al., J. Neurochem. 71, 258-65, 1998). Homogenates from human platelets were prepared by homogenization and then washed by centrifugation as described previously (see, e.g., Hoare et al., (2003) Peptides 24:1881-97).
The human VMAT2 Ki values for the compounds listed in Table 15A and Table 15B were determined using the following procedures. Compound dilution series in DMSO were generated from either powder stocks by hand, or from DMSO stocks using serial dilution on a Vantage (Hamilton), or direct dilution using an Echo 655 (Beckman). In a total volume of 0.145 to 0.150 mL in low-binding 96-well plates (Corning #3605), twelve concentrations of test compound were competed against 10 nM ^3H-dihydrotetrabenezine (American Radiolabeled Chemicals) on human platelet homogenate (30 μg membrane protein per well) in VMAT2 binding buffer (Dulbecco's phosphate buffered saline, 1 mM EDTA, pH 7.4). Following incubation at 25° C. for 90 minutes, bound radioligand was collected by rapid filtration onto either GF/B or GF/C glass fiber filters, pretreated with 0.100 polyethylenimine, using either a Unifilter-96 Harvester (PerkinElmer) or Microlab Star (Hamilton). Following harvesting the filter plates were washed with 0.8 mL VMAT2 binding buffer, and bound radioligand was quantified by scintillation counting using a Topcount NXT or Microplate Counter Microbeta (PerkinElmer).

Sequence of human VMAT2 (Q05940 whole entry): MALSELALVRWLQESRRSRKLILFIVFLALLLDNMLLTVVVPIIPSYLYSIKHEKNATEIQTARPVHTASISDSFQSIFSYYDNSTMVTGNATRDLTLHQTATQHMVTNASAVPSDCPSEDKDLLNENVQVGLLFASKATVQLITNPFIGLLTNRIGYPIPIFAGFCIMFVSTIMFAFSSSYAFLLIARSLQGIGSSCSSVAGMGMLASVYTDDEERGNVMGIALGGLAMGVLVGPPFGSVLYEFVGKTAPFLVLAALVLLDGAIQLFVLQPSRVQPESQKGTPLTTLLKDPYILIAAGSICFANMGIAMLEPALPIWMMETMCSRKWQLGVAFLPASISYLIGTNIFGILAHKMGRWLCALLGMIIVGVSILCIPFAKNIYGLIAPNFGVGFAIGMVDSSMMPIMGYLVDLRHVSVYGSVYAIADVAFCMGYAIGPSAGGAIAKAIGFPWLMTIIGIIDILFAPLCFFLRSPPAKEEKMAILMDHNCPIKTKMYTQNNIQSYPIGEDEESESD

Turning to `COc1cc2c(cc1OCC(F)F)CCN1C[C@H](CC(C)(C)C)[C@H](O)C[C@@H]21` [Compound 4-2, (2R,3S,11bS)-9-(2,2-difluoroethoxy)-3-(2,2-dimethylpropyl)-10-methoxy-1H,2H,3H,4H,6H,7H,11bH-pyrido[2,1-a]isoquinolin-2-ol], the Ki (as a rule, a measure of affinity in units of concentration, obtained from inhibition or displacement) worked out at 467 nM. On to `COc1cc2c(cc1OCC(C)(F)F)CCN1C[C@H](CC(C)(C)C)[C@H](O)C[C@@H]21` [Compound 4-3, (2R,3S,11bS)-9-(2,2-difluoropropoxy)-3-(2,2-dimethylpropyl)-10-methoxy-1H,2H,3H,4H,6H,7H,11bH-pyrido[2,1-a]isoquinolin-2-ol], for which the Ki was 152 nM.

Consider `COc1cc2c(cc1OCC(F)(F)F)CCN1C[C@H](CC(C)(C)C)[C@H](O)C[C@@H]21` [Compound 4-4, (2R,3S,11bS)-3-(2,2-dimethylpropyl)-10-methoxy-9-(2,2,2-trifluoroethoxy)-1H,2H,3H,4H,6H,7H,11bH-pyrido[2,1-a]isoquinolin-2-ol], for which the Ki came out at 170 nM. The same measure for `COc1cc2c(cc1OCCC(F)(F)F)CCN1C[C@H](CC(C)(C)C)[C@H](O)C[C@@H]21` [Compound 4-5, (2R,3S,11bS)-3-(2,2-dimethylpropyl)-10-methoxy-9-(3,3,3-trifluoropropoxy)-1H,2H,3H,4H,6H,7H,11bH-pyrido[2,1-a]isoquinolin-2-ol]: 135 nM; for `COc1cc2c(cc1OCC(F)F)CCN1C[C@H](CC(C)(C)C)[C@@H](O)C[C@@H]21` [Compound 4-6, (2S,3S,11bS)-9-(2,2-difluoroethoxy)-3-(2,2-dimethylpropyl)-10-methoxy-1H,2H,3H,4H,6H,7H,11bH-pyrido[2,1-a]isoquinolin-2-ol]: 860 nM. Turning to `COc1cc2c(cc1OCC(C)(F)F)CCN1C[C@H](CC(C)(C)C)[C@@H](O)C[C@@H]21` [Compound 4-7, (2S,3S,11bS)-9-(2,2-difluoropropoxy)-3-(2,2-dimethylpropyl)-10-methoxy-1H,2H,3H,4H,6H,7H,11bH-pyrido[2,1-a]isoquinolin-2-ol], the Ki amounted to 539 nM. As to `COc1cc2c(cc1OCC(F)(F)F)CCN1C[C@H](CC(C)(C)C)[C@@H](O)C[C@@H]21` [Compound 4-8, (2S,3S,11bS)-3-(2,2-dimethylpropyl)-10-methoxy-9-(2,2,2-trifluoroethoxy)-1H,2H,3H,4H,6H,7H,11bH-pyrido[2,1-a]isoquinolin-2-ol], the Ki was 597 nM. Take `COc1cc2c(cc1OCCOC1COC1)CCN1C[C@@H](CC(C)(C)C)[C@H](O)C[C@H]21` [Compound 4-20, (2R,3R,11bR)-3-(2,2-dimethylpropyl)-10-methoxy-9-[2-(oxetan-3-yloxy)ethoxy]-1H,2H,3H,4H,6H,7H,11bH-pyrido[2,1-a]isoquinolin-2-ol]: the Ki was found to be 336 nM. On to `COc1cc2c(cc1OC[C@@H]1CCO1)CCN1C[C@@H](CC(C)(C)C)[C@H](O)C[C@H]21` [Compound 4-21, (2R,3R,11bR)-3-(2,2-dimethylpropyl)-10-methoxy-9-[(2S)-oxetan-2-ylmethoxy]-1H,2H,3H,4H,6H,7H,11bH-pyrido[2,1-a]isoquinolin-2-ol], for which the Ki came out at 28 nM. On to `COc1cc2c(cc1OCC(=O)N(C)C)CCN1C[C@@H](CC(C)(C)C)[C@H](O)C[C@H]21` [Compound 4-33, 2-{[(2R,3R,11bR)-3-(2,2-dimethylpropyl)-2-hydroxy-10-methoxy-1H,2H,3H,4H,6H,7H,11bH-pyrido[2,1-a]isoquinolin-9-yl]oxy}-N,N-dimethylacetamide], for which the Ki was over 10000 nM. Regarding `COc1cc2c(cc1OCCn1ccnc1)CCN1C[C@@H](CC(C)(C)C)[C@H](O)C[C@H]21` [Compound 4-34, (2R,3R,11bR)-3-(2,2-dimethylpropyl)-9-[2-(1H-imidazol-1-yl)ethoxy]-10-methoxy-1H,2H,3H,4H,6H,7H,11bH-pyrido[2,1-a]isoquinolin-2-ol], the Ki is over 10000 nM. Regarding `CNC(=O)COc1cc2c(cc1OC)[C@H]1C[C@@H](O)[C@H](CC(C)(C)C)CN1CC2` [Compound 4-35, 2-{[(2R,3R,11bR)-3-(2,2-dimethylpropyl)-2-hydroxy-10-methoxy-1H,2H,3H,4H,6H,7H,11bH-pyrido[2,1-a]isoquinolin-9-yl]oxy}-N-methylacetamide], the Ki is over 10000 nM. The same measure for `COc1cc2c(cc1OCC1CN(C)C1)CCN1C[C@@H](CC(C)(C)C)[C@H](O)C[C@H]21` [Compound 4-37, (2R,3R,11bR)-3-(2,2-dimethylpropyl)-10-methoxy-9-[(1-methylazetidin-3-yl)methoxy]-1H,2H,3H,4H,6H,7H,11bH-pyrido[2,1-a]isoquinolin-2-ol]: over 10000 nM; for `COc1cc2c(cc1OC(C)C(F)(F)F)CCN1C[C@@H](CC(C)(C)C)[C@H](O)C[C@H]21` (stereo partly drawn) [Compound 4-39, (2R,3R,11bR)-3-(2,2-dimethylpropyl)-10-methoxy-9-[(1,1,1-trifluoropropan-2-yl)oxy]-1H,2H,3H,4H,6H,7H,11bH-pyrido[2,1-a]isoquinolin-2-ol]: 12 nM. As for `COC[C@H](O)COc1cc2c(cc1OC)[C@H]1C[C@@H](O)[C@H](CC(C)(C)C)CN1CC2` [Compound 4-48, (2R,3R,11bR)-3-(2,2-dimethylpropyl)-9-[(2S)-2-hydroxy-3-methoxypropoxy]-10-methoxy-1H,2H,3H,4H,6H,7H,11bH-pyrido[2,1-a]isoquinolin-2-ol], the Ki turned out to be 313 nM.

Consider `COc1cc2c(cc1OCC1(C(F)(F)F)CCCC1)CCN1C[C@@H](CC(C)(C)C)[C@H](O)C[C@H]21` [Compound 4-80, (2R,3R,11bR)-3-(2,2-dimethylpropyl)-10-methoxy-9-{[1-(trifluoromethyl)cyclo-pentyl]methoxy}-1H,2H,3H,4H,6H,7H,11bH-pyrido[2,1-a]isoquinolin-2-ol], for which the Ki was 133 nM. Under `COc1cc2c(cc1OCc1ccc(C(F)(F)F)cc1)CCN1C[C@@H](CC(C)(C)C)[C@H](O)C[C@H]21` [Compound 4-81, (2R,3R,11bR)-3-(2,2-dimethylpropyl)-10-methoxy-9-{[4-(trifluoro-methyl)phenyl]methoxy}-1H,2H,3H,4H,6H,7H,11bH-pyrido[2,1-a]isoquinolin-2-ol] stands 177 nM; under `COc1cc2c(cc1OCc1ccc(C#N)cn1)CCN1C[C@@H](CC(C)(C)C)[C@H](O)C[C@H]21` [Compound 4-82, 6-({[(2R,3R,11bR)-3-(2,2-dimethylpropyl)-2-hydroxy-10-methoxy-1H,2H,3H,4H,6H,7H,11bH-pyrido[2,1-a]isoquinolin-9-yl]oxy}methyl)pyridine-3-carbonitrile], 198 nM.

With `COc1cc2c(cc1OC[C@H](O)CO)CCN1C[C@@H](CC(C)(C)C)[C@H](O)C[C@H]21` [Compound 4-83, (2R)-3-{[(2R,3R,11bR)-3-(2,2-dimethylpropyl)-2-hydroxy-10-methoxy-1H,2H,3H,4H,6H,7H,11bH-pyrido[2,1-a]isoquinolin-9-yl]oxy}propane-1,2-diol], the Ki came to 207 nM. The same measure for `COc1cc2c(cc1OCC(=O)N(C)CC(F)(F)F)CCN1C[C@@H](CC(C)(C)C)[C@H](O)C[C@H]21` [Compound 4-84, 2-{[(2R,3R,11bR)-3-(2,2-dimethylpropyl)-2-hydroxy-10-methoxy-1H,2H,3H,4H,6H,7H,11bH-pyrido[2,1-a]isoquinolin-9-yl]oxy}-N-methyl-N-(2,2,2-trifluoroethyl)acetamide]: 272 nM; for `COc1cc2c(cc1OCCCS(C)(=O)=O)CCN1C[C@@H](CC(C)(C)C)[C@H](O)C[C@H]21` [Compound 4-85, (2R,3R,11bR)-3-(2,2-dimethylpropyl)-9-(3-methanesulfonylpropoxy)-10-methoxy-1H,2H,3H,4H,6H,7H,11bH-pyrido[2,1-a]isoquinolin-2-ol]: 276 nM; for `COc1cc2c(cc1OCS(=O)(=O)N(C)C)CCN1C[C@@H](CC(C)(C)C)[C@H](O)C[C@H]21` [Compound 4-86, 1-{[(2R,3R,11bR)-3-(2,2-dimethylpropyl)-2-hydroxy-10-methoxy-1H,2H,3H,4H,6H,7H,11bH-pyrido[2,1-a]isoquinolin-9-yl]oxy}-N,N-dimethylmethanesulfonamide]: 287 nM.

With `COc1cc2c(cc1OC1CCN(CC(F)(F)F)C1=O)CCN1C[C@@H](CC(C)(C)C)[C@H](O)C[C@H]21` (stereo partly drawn) [Compound 4-87, 3-{[(2R,3R,11bR)-3-(2,2-dimethylpropyl)-2-hydroxy-10-methoxy-1H,2H,3H,4H,6H,7H,11bH-pyrido[2,1-a]isoquinolin-9-yl]oxy}-1-(2,2,2-trifluoroethyl)pyrrolidin-2-one], the Ki turned out to be 650 nM.

Take `COc1cc2c(cc1OCCCO)CCN1C[C@@H](CC(C)(C)C)[C@H](O)C[C@H]21` [Compound 4-89, (2R,3R,11bR)-3-(2,2-dimethylpropyl)-9-(3-hydroxypropoxy)-10-methoxy-1H,2H,3H,4H,6H,7H,11bH-pyrido[2,1-a]isoquinolin-2-ol]: the Ki was 140 nM.
